Assays:
[1] = tested on: ETC Complex I diaphorase (NADH: acceptor oxidoreductase); test: Complex I Enzyme Activity Microplate Assay (diaphorase); type: biochemical, bovine; details: 200 and 800 μM
Method: To assess if α-KB can affect the diaphorase (NADH: acceptor oxidoreductase) activity of Complex I, the Complex I Enzyme Activity Microplate Assay Kit (Abcam, ab109721) was used. The assay was performed according to the protocol provided. Bovine Heart Mitochondria lysate (Abcam, ab110338) was added with detergent, followed by incubation on ice for 30 minutes to release Complex I and then centrifuged at 12,000 g, 4° C. for 20 minutes. Supernatant was collected and diluted with the buffer provided and then added to a Complex I antibody-coated 96-well plate. After a 3 hour incubation followed by 2× wash with stabilizer buffer, the wells were added with 200 μL of reaction mix containing 50, 200, or 800 μM α-KB or vehicle control (distilled water). Each condition was performed in triplicates. Kinetic measurements of absorbance at 450 nm with 1 minute intervals were taken, and Complex I diaphorase activity was calculated from the slope of the absorbance to time. The readings were normalized to vehicle mean (as 100 percent).

[2] = target: TOR (target of rapamycin) (Homo sapiens, UniProt P42345); test: TOR inhibition
[3] = tested on: nuo-6(qm200), daf-2(e1370), eat-2(ad1116) mutant C. elegans strains; test: Lifespan of long-lived mutant C. elegans strains; type: in vivo, Caenorhabditis elegans
From the text: The nuo-6 gene encodes the C. elegans ortholog of the NDUFB4/B15 subunit of the mitochondrial electron transport chain complex I, also known as the NADH dehydrogenase complex.

C57BL/6 male mice = test: Transverse aortic constriction (TAC) induced heart failure and cardiac hypertrophy; type: in vivo, mouse
Method: Surgical procedure was performed one day before treatment with vehicle or α-KB. Cardiac output was assessed 3 weeks post-treatment by determining the cardiac ejection fraction (EF) by echo.
Transverse aortic constriction (TAC) in mice was used to induce pressure overload-induced heart failure and cardiac hypertrophy. TAC surgical procedure was performed one day before treatment with vehicle or α-KB. C57BL/6 male mice were treated with α-KB at 30 mg/kg body weight per day in drinking water. Cardiac output was assessed 3 weeks post-treatment by determining the cardiac ejection fraction (EF) measured by Echo.

Huh7.5 cells = test: MTT cytotoxicity assay; type: cell-based; details: 100 nM to 1 mM, up to 72 hours
Method: As subjects age, their susceptibility to infection increases. Therefore, to determine whether α-KB reduces ones susceptibility to age-related infection, Huh7.5 cells were infected with the Renilla reporter HCV for 5 hours and subsequently treated with 1 mM and 1 μM of α-KB. 72 hours post treatment, the cells were lysed and luciferase activity was measured. JG-98, which is a suppressor of viral assembly, was used as a positive control and water was used as a negative control. […] To ensure that the anti-viral activity of α-KB is not the result of cytotoxicity, Huh7.5 cells were treated with 1 mM, 100 μM, 10 μM, 1 μM, and 100 nM α-KB. MTT assays were performed every 24 hours up to 72 hours post treatment. Luteolin, an anti-cancer compound which is cytotoxic, was used as a positive control and water was used as a negative control.

Isolated hearts = test: Isolated heart ischemia and reperfusion (LVDP); details: 30 minutes ischemia, 60 minutes reperfusion, post-ischemic administration
Method: Isolated hearts were subjected to 30 minutes ischemia followed by 60 minutes of reperfusion with control buffer, 2-KB, (R)-2-hydroxybutyrate, (R)-3-hydroxybutyrate (also known as ketone body), α-KG, and the Complex I inhibitor rotenone. LVDP is shown as a function of time.

C. elegans = test: Lifespan of adult C. elegans on treatment plates; type: in vivo, Caenorhabditis elegans
Method: C. elegans were synchronized by performing either a timed egg lay or an egg preparation (mix <100 gravid worms in 70 μl M9 buffer, 25 μl bleach, and 5 μl 10 N NaOH). Once the worms reached adulthood, they were picked onto NGM treatment plates containing 1.5% dimethyl sulfoxide (DMSO; Sigma D8418), 49.5 μM 5-fluoro-2′-deoxyuridine (FUDR, Sigma F0503), 50 μg/ml ampicillin, and α-KB (Sigma K401). Plates containing α-KB were adjusted to pH 6.0 (i.e., the same pH as the control plates) by the addition of NaOH. Treatment plates were seeded with OP50 E. coli as the C. elegans food source. […] Worms were moved to new plates every 4 days. All lifespan experiments were conducted at 20° C.

[4] = tested on: Aged mice (22-23 month old C57BL/6J); test: Aged mice fed α-KB in drinking water for 7 months; type: in vivo
Method: Aged mice (22-23 month old C57BL/6J), including both males and females, were fed either water or α-KB (8 mM in drinking water or 90 mg/kg body weight) for 7 months. […] Mice were examined at least twice a week for signs of ill health, and severely sick or immobilized mice were subject to termination. The lifespan of α-KB treated male group was extended. All the males in untreated control group (5 of 5) died or were terminated due to severe illness before the completion of the 7 months test. Remarkably, most of the males in the α-KB treated group (4 of 5) lived healthily and were still in excellent health at the end of the 7 months study period.

## CCC(=O)C(=O)O [α-KB, α-ketobutyrate]
[1]
  Complex I diaphorase activity: directly inhibits
[2]
  inhibition of TOR: does not inhibit
[3]; daf-2(e1370)
  lifespan of daf-2(e1370) strain: does extend the lifespan
[3]; eat-2(ad1116)
  lifespan of eat-2(ad1116) strain: does extend the lifespan
[3]; nuo-6(qm200)
  lifespan of nuo-6(qm200) strain: inability of α-KB to extend the lifespan
C57BL/6 male mice
  mortality: appeared to decrease mortality
C57BL/6 male mice; end of experiment (5 weeks), Mean, STEDV
  heart (mg)/body (g) ratio: 10.72±1.98
Huh7.5 cells
  cytotoxicity (MTT): not cytotoxic
Isolated hearts
  heart function after ischemia (LVDP): restores heart function after ischemia
C. elegans; adult C. elegans, 20° C.
  lifespan as compared to untreated control subjects: extends the lifespan
C. elegans; in vivo
  potency relative to α-KG in treating, inhibiting, or reducing aging and age-related symptoms: about 1 fold
[4]; 8 mM in drinking water or 90 mg/kg body weight, 7 months
  adverse effects: no adverse effects
[4]; aged female mice
  gray hair versus untreated group: reduced
  lifespan, females, treated versus untreated: indistinguishable
[4]; aged female mice, 7 months
  hair density versus untreated control: higher
[4]; aged male mice
  effect on gray hair and hair density: minimal
  lifespan, male group: extended
  males alive and healthy at end of the 7 months study period: 4 of 5
[4]; aged mice
  cataracts: no cataracts
[4]; male and female aged mice
  liver appearance: greatly improved liver appearance
